For assay [1], the system named is TFEB nuclear translocation. Particulars: cited from earlier work.
For a further assay, the target named is purified recombinant CN (Rattus norvegicus, UniProt P63100+P63329). Nature of the assay: Fluorescence polarization.
The test system of assay [2] is interaction between GST-CNA and GFP-TFEB. Nature of the assay: GST pull-down of GFP-TFEB by GST-CNA. The class given is binding. The note with it: quercetin 50 μM and 100 μM; GFP-TFEB transfected in HeLa cells.
The target in a further assay is PVIVIT peptide. The note with it: cited from earlier work.
For assay [3], the target named is NFAT PRIEIT peptide (Homo sapiens). Particulars: cited from earlier work.
Assay [4] has as its system CN. Particulars: kinetics comparable to intact RII; cited from earlier work.
Assay [5] has as its target CN (Rattus norvegicus, UniProt P63100+P63329). Nature of the assay: CN phosphatase colorimetric assay with RII phosphopeptide as substrate. The class given is biochemical.
Assay [6] has as its system CNA in mouse brain lysates. Nature of the assay: GST pull-down of CNA from mouse brain lysates. Particulars: addition of synthetic peptide to pull-down. The class given is binding.

Ends that are not written are not given here.

Sequence of purified recombinant CN (P63100 whole entry, other chains not shown): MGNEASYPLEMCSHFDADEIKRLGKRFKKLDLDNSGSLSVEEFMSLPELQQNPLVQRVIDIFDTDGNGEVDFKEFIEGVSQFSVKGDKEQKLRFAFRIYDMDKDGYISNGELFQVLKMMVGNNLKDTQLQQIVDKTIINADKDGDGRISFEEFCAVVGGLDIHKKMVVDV

Turning to `C=CC[C@@H]1/C=C(\C)C[C@H](C)C[C@H](OC)[C@H]2O[C@@](O)(C(=O)C(=O)N3CCCC[C@H]3C(=O)O[C@H](/C(C)=C/[C@@H]3CC[C@@H](O)[C@H](OC)C3)[C@H](C)[C@@H](O)CC1=O)[C@H](C)C[C@@H]2OC` [FK506], in assay [1], the “TFEB nuclear translocation during starvation” value is on record as “reduce TFEB nuclear translocation”.

As a reminder, the IC50 is the point on the concentration scale where inhibition reaches its midpoint. With `CC(C)C[C@H](NC(=O)[C@H](Cc1ccc(O)cc1)NC(=O)[C@H](CCC(N)=O)NC(=O)[C@@H](N)CC(=O)O)C(=O)N[C@@H](C)C(=O)N[C@H](C(=O)N1CCC[C@H]1C(=O)N[C@@H](CCC(N)=O)C(=O)N[C@@H](Cc1c[nH]cn1)C(=O)N1CCC[C@H]1C(=O)N[C@@H](Cc1ccc(O)cc1)C(=O)N[C@@H](CCC(N)=O)C(=O)N[C@@H](Cc1c[nH]c2ccccc12)C(=O)N[C@@H](C)C(=O)N[C@@H](CCCCN)C(=O)O)C(C)C` [NFATc1-YLAVP], the IC50 at purified recombinant CN was about 5 µM.

In the case of `O=c1c(O)c(-c2ccc(O)c(O)c2)oc2cc(O)cc(O)c12` [quercetin], the “effect on interaction between GST-CNA and GFP-TFEB” value in assay [2] is given as “blocks the interaction”.

Usually Kd stands for the concentration at which binding is half-saturated. Turning to Calcineurin (from UniProt Q08209), the Kd is 0.5 µM with PVIVIT peptide and 25 µM in assay [3].

In the case of “DLDVPIPGRFDRRVpSVAAE [RII phosphopeptide]”, the “Vmax of dephosphorylation by CN” value in the assay with CN [4] is 1.7 µmol/min/mg.

For ESILLVPPTWPKPLV [NFATc2-ILLVP], at CN [5], 130 µM corresponded to half-maximal inhibition (IC50).

GSSHLAPPNPDKQFL [RCAN1-HLAPP] had an IC50 against CN [5] of 131 µM.

For the compound QSYLENPTSYHLQQS [TFEB-YLENP], the “effect on interaction between GST-TFEB-YLENP and CNA” value in assay [6] is “greatly inhibited”.

The values are drawn from paper PMC5774622 (Biochimie, 2017).
